Assay results from ChEMBL document CHEMBL4609992, “Discovery of novel small molecule induced selective degradation of the bromodomain and extra-terminal (BET) bromodomain protein BRD4 and BRD2 with cellular potencies” (Bioorg Med Chem, 2020).
Calls of active or inactive are those of the source. No cut-off for these calls is given here.

Assays:
[1] = system: MOLM-13; experiment: Antiproliferative activity against human MOLM13 cells assessed as reduction in cell viability measured after 48 hrs by CellTiter-Glo assay; format: functional, cell-based; details: MOLM-13, 48 h
[2] = system: CCRF-CEM; experiment: Growth inhibition of human CCRF-CEM cells assessed as cell growth inhibition incubated for 48 hrs by sulforhodamine B assay; format: functional
[3] = system: HL-60(TB); experiment: Growth inhibition of human HL-60(TB) cells assessed as cell growth inhibition incubated for 48 hrs by sulforhodamine B assay; format: functional; details: HL-60, 48 h
[4] = system: MOLT-4; experiment: Growth inhibition of human MOLT4 cells assessed as cell growth inhibition incubated for 48 hrs by sulforhodamine B assay; format: functional; details: MOLT-4, 48 h
[5] = system: A549; experiment: Growth inhibition of human A549/ATCC cells assessed as cell growth inhibition incubated for 48 hrs by sulforhodamine B assay; format: functional; details: A549, 48 h
[6] = system: HOP-92; experiment: Growth inhibition of human HOP92 cells assessed as cell growth inhibition incubated for 48 hrs by sulforhodamine B assay; format: functional; details: HOP-92, 48 h
[7] = system: NCI-H226; experiment: Growth inhibition of human NCI-H226 cells assessed as cell growth inhibition incubated for 48 hrs by sulforhodamine B assay; format: functional; details: NCI-H226, 48 h
[8] = system: NCI-H23; experiment: Growth inhibition of human NCI-H23 cells assessed as cell growth inhibition incubated for 48 hrs by sulforhodamine B assay; format: functional; details: NCI-H23, 48 h
[9] = system: NCI-H322M; experiment: Growth inhibition of human NCI-H322M cells assessed as cell growth inhibition incubated for 48 hrs by sulforhodamine B assay; format: functional
[10] = system: HCC 2998; experiment: Growth inhibition of human HCC2998 cells assessed as cell growth inhibition incubated for 48 hrs by sulforhodamine B assay; format: functional; details: HCC 2998, 48 h
[11] = system: HCT-116; experiment: Growth inhibition of human HCT116 cells assessed as cell growth inhibition incubated for 48 hrs by sulforhodamine B assay; format: functional; details: HCT-116, 48 h
[12] = system: SF-539; experiment: Growth inhibition of human SF539 cells assessed as cell growth inhibition incubated for 48 hrs by sulforhodamine B assay; format: functional; details: SF-539, 48 h
[13] = system: SNB-19; experiment: Growth inhibition of human SNB19 cells assessed as cell growth inhibition incubated for 48 hrs by sulforhodamine B assay; format: functional; details: SNB-19, 48 h
[14] = system: SNB-75; experiment: Growth inhibition of human SNB75 cells assessed as cell growth inhibition incubated for 48 hrs by sulforhodamine B assay; format: functional; details: SNB-75, 48 h
[15] = system: Malme-3M; experiment: Growth inhibition of human MALME-3M cells assessed as cell growth inhibition incubated for 48 hrs by sulforhodamine B assay; format: functional
[16] = system: MDA-MB-435; experiment: Growth inhibition of human MDA-MB-435 cells assessed as cell growth inhibition incubated for 48 hrs by sulforhodamine B assay; format: functional; details: MDA-MB-435, 48 h
[17] = system: SK-MEL-28; experiment: Growth inhibition of human SK-MEL-28 cells assessed as cell growth inhibition incubated for 48 hrs by sulforhodamine B assay; format: functional; details: SK-MEL-28, 48 h
[18] = system: SK-MEL-5; experiment: Growth inhibition of human SK-MEL-5 cells assessed as cell growth inhibition incubated for 48 hrs by sulforhodamine B assay; format: functional; details: SK-MEL-5, 48 h
[19] = system: IGROV-1; experiment: Growth inhibition of human IGROV1 cells assessed as cell growth inhibition incubated for 48 hrs by sulforhodamine B assay; format: functional; details: IGROV-1, 48 h
[20] = system: OVCAR-3; experiment: Growth inhibition of human OVCAR3 cells assessed as cell growth inhibition incubated for 48 hrs by sulforhodamine B assay; format: functional; details: OVCAR-3, 48 h
[21] = system: OVCAR-4; experiment: Growth inhibition of human OVCAR4 cells assessed as cell growth inhibition incubated for 48 hrs by sulforhodamine B assay; format: functional; details: OVCAR-4, 48 h
[22] = system: OVCAR-5; experiment: Growth inhibition of human OVCAR5 cells assessed as cell growth inhibition incubated for 48 hrs by sulforhodamine B assay; format: functional; details: OVCAR-5, 48 h
[23] = system: 786-0; experiment: Growth inhibition of human 786-0 cells assessed as cell growth inhibition incubated for 48 hrs by sulforhodamine B assay; format: functional; details: 786-0, 48 h
[24] = system: CAKI-1; experiment: Growth inhibition of human Caki1 cells assessed as cell growth inhibition incubated for 48 hrs by sulforhodamine B assay; format: functional; details: CAKI-1, 48 h
[25] = system: RXF 393; experiment: Growth inhibition of human RXF393 cells assessed as cell growth inhibition incubated for 48 hrs by sulforhodamine B assay; format: functional; details: RXF 393, 48 h
[26] = system: SN12C; experiment: Growth inhibition of human SN12C cells assessed as cell growth inhibition incubated for 48 hrs by sulforhodamine B assay; format: functional
[27] = system: MCF7; experiment: Growth inhibition of human MCF7 cells assessed as cell growth inhibition incubated for 48 hrs by sulforhodamine B assay; format: functional; details: MCF7, 48 h
[28] = system: T47D; experiment: Growth inhibition of human T47D cells assessed as cell growth inhibition incubated for 48 hrs by sulforhodamine B assay; format: functional
[29] = system: MDA-MB-468; experiment: Growth inhibition of human MDA-MB-468 cells assessed as cell growth inhibition incubated for 48 hrs by sulforhodamine B assay; format: functional; details: MDA-MB-468, 48 h
[30] = system: RPMI-8226; experiment: Antiproliferative activity against human RPMI8226 cells assessed as reduction in cell viability; format: functional, cell-based
[31] = system: PC-3; experiment: Antiproliferative activity against human PC3 cells assessed as reduction in cell viability; format: functional, cell-based
[32] = system: TT; experiment: Antiproliferative activity against human TT cells assessed as reduction in cell viability; format: functional, cell-based
[33] = system: HCC827; experiment: Antiproliferative activity against human HCC827 cells assessed as reduction in cell viability; format: functional, cell-based
[34] = system: NCI-H1650; experiment: Antiproliferative activity against human NCI-H1650 cells assessed as reduction in cell viability; format: functional, cell-based
[35] = system: MV4-11; experiment: Induction of apoptosis in human MV4-11 cells at < 100 nM measured after 24 hrs by Annexin V-FITC/propidium iodide staining based FACScan flow cytometry relative to control; format: functional
[36] = system: MV4-11; experiment: Induction of apoptosis in human MV4-11 cells at < 30 nM measured after 48 hrs by Annexin V-FITC/propidium iodide staining based FACScan flow cytometry relative to control; format: functional
[37] = system: MV4-11; experiment: Cell cycle arrest in human MV4-11 cells assessed as accumulation at G1 phase at 100 nM measured after 24 hrs by RNase/propidium iodide staining based FACScan flow cytometry (reference value: 59.66 %); format: functional
[38] = molecular target: T1, Protein cereblon/Bromodomain-containing protein 4/Cullin-4A (Homo sapiens) (UniProt O60885+Q96SW2+Q13619); experiment: Protac activity at cereblon/cullin4A/BRD4 in human MV4-11 cells assessed as induction of BRD4 degradation at 10 nM measured after 18 hrs by Western blot analysis; format: cell-based
[39] = molecular target: T1, Protein cereblon/Bromodomain-containing protein 4/Cullin-4A (Homo sapiens); experiment: Protac activity at cereblon/cullin4A/BRD4 in human MV4-11 cells assessed as induction of BRD4 degradation at 50 nM measured after 18 hrs by Western blot analysis relative to control; format: cell-based
[40] = molecular target: Protein cereblon/Bromodomain-containing protein 2/Cullin-4A (Homo sapiens) (UniProt P25440+Q96SW2+Q13619); experiment: Protac activity at cereblon/cullin4A/BRD2 in human MV4-11 cells assessed as induction of BRD2 degradation at 50 nM measured after 18 hrs by Western blot analysis; format: cell-based
Protein cereblon/Bromodomain-containing protein 2/Cullin-4A (Homo sapiens), sequence (P25440 whole entry, looked up): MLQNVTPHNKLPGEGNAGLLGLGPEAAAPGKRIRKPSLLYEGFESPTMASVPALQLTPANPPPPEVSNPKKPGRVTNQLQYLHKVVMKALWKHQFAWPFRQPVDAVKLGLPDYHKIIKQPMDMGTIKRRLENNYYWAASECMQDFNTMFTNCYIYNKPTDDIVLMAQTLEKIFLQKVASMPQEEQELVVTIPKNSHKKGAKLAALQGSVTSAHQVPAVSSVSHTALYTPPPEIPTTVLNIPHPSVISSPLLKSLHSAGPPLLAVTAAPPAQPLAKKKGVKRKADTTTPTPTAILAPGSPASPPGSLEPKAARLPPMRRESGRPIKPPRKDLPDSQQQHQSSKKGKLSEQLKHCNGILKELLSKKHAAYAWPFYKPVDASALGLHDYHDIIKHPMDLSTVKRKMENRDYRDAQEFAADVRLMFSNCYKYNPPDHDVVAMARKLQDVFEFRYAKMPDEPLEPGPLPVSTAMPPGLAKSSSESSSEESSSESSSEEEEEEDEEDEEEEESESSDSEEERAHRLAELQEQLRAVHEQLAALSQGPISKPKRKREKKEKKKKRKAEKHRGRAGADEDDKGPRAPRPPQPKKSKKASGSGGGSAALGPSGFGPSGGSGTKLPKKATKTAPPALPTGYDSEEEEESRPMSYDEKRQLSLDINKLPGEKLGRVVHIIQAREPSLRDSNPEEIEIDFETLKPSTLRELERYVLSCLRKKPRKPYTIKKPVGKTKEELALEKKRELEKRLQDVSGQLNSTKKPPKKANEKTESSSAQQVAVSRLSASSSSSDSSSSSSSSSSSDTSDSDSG
Protein cereblon/Bromodomain-containing protein 2/Cullin-4A (Homo sapiens), sequence (Q13619 whole entry, looked up): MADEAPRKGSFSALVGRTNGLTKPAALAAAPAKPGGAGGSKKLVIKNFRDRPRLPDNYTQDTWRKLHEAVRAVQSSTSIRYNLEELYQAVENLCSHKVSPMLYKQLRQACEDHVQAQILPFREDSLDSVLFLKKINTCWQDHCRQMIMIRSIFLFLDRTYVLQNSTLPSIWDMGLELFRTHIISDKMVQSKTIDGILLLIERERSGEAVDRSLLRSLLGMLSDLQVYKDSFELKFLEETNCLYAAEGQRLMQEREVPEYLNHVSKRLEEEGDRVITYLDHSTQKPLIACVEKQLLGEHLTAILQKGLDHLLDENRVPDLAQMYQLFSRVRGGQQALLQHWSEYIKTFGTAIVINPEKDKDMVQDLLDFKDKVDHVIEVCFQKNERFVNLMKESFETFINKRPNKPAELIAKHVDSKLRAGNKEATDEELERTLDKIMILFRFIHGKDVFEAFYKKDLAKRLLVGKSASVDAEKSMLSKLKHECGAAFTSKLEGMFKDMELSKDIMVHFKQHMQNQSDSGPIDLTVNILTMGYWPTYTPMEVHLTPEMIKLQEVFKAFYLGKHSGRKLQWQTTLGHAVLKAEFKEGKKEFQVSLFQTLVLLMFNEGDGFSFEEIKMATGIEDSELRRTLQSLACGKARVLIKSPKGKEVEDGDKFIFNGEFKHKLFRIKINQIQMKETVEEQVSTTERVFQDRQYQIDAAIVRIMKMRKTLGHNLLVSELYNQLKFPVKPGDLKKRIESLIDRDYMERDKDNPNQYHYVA
Protein cereblon/Bromodomain-containing protein 2/Cullin-4A (Homo sapiens), sequence (Q96SW2 whole entry, looked up): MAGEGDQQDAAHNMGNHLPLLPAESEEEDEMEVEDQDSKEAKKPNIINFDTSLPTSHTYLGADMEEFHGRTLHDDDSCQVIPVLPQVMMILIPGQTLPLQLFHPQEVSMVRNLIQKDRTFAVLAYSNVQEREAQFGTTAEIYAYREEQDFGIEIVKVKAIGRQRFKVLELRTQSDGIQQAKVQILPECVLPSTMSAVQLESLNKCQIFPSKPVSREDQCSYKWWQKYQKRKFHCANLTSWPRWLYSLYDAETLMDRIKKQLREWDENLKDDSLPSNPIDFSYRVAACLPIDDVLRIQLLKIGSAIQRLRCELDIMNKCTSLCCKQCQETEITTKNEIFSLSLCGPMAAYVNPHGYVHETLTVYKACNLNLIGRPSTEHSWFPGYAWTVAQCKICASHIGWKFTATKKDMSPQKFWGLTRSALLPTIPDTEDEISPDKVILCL

Compound: COc1ccccc1S(=O)(=O)Nc1ccc2c3c(cc(CCC(=O)NCCCCNc4cccc5c4C(=O)N(C4CCC(=O)NC4=O)C5=O)cc13)C(=O)N2C (stereo not given)
- IC50 [1]: 52 nM
- GI50 [2]: 28 nM
- GI50 [3]: 22 nM
- GI50 [4]: 31 nM
- GI50 [5]: 5260 nM
- GI50 [6]: 26 nM
- GI50 [7]: 456 nM
- GI50 [8]: 37500 nM
- GI50 [9]: 355 nM
- GI50 [10]: 316 nM
- GI50 [11]: 3660 nM
- GI50 [12]: 752 nM
- GI50 [13]: 475 nM
- GI50 [14]: 89 nM
- GI50 [15]: 161 nM
- GI50 [16]: 819 nM
- GI50 [17]: 891 nM
- GI50 [18]: 1120 nM
- GI50 [19]: 145 nM
- GI50 [20]: 1830 nM
- GI50 [21]: 259 nM
- GI50 [22]: 2740 nM
- GI50 [23]: 2110 nM
- GI50 [24]: 2630 nM
- GI50 [25]: 864 nM
- GI50 [26]: 447 nM
- GI50 [27]: 303 nM
- GI50 [28]: 34 nM
- GI50 [29]: 20 nM
- IC50 [30]: 440 nM
- IC50 [31]: 932 nM
- IC50 [32]: 37.4 nM
- IC50 [33]: 580 nM
- IC50 [34]: 1330 nM
- Activity [35]: 80%
- Activity [36]: 86.86%
- Activity [37]: 71.37%
- Activity [38]: Active
- Activity [39]: 100%
- Activity [40]: Active
